The values that follow come from patent US10759994B2, “Luminogenic transition metal-based pyridyl complex and its use” (City University of Hong Kong, priority 2016, dated 2020).

Series [1] in a line: Emission enhancement upon reaction with BCN—OH. The class given is physicochemical. As to conditions: complex 10 μM, BCN—OH 1 mM, aerated MeOH, 298 K. From the text:
The strained alkyne BCN—OH has been selected as a model substrate. […] Namely, these findings confirm that complexes 1a-5b remained non-emissive or weakly emissive as long as the nitrone moiety is intact and resume their strongly emissive behavior upon cycloaddition reaction with strained alkynes.

Series [2] deals with T1, BCN-BSA (Bos taurus, UniProt P02769).
T1 construct: purchased Calbiochem
The experiment in a line: Emission enhancement upon reaction with BCN-BSA. Particulars: complex 10 μM, protein 3.78 μM, aerated potassium phosphate buffer (50 mM, pH 7.4)/DMSO (99:1, v/v), 298 K. The class given is biochemical, Bovine.

Series [3] concerns HeLa cells. The experiment in a line: Cellular uptake by ICP-MS in HeLa cells. The class given is cell-based. As to conditions: complex 40 μM, 12 h; for Amount of ruthenium associated with an average HeLa cell: 37° C., ICP-MS, untreated cells; for Uptake by BCN-C10-pretreated cells relative to untreated cells: HeLa cells, BCN-C10 pretreatment. On the procedure:
The cellular uptake of complexes 1a-5b was examined by ICP-MS. […] This finding should originate from intracellular esterases that convert the ester moieties of complex 3a into negatively charged carboxyl groups, enhancing its intracellular retention. […] Upon incubation of the untreated cells with the complexes, the amounts of ruthenium taken up by an average cell followed the order: 1 b<3b<5b<2b<4b, which seems to be in accordance with their lipophilic character. […] These findings indicate that the accumulation of the complexes 1 b-5b in BCN-C10-pretreated cells is not only associated with their lipophilicity, but also strongly affected by the bioorthogonal labeling of BCN-C10.
More specifically, for determining the cellular uptake of complexes 1a-3a, CHO-K1 cells were incubated in growth medium/DMSO (99:1, v/v) containing the iridium(III) complex (5 μM) in the dark at 37° C. under a 5% CO2 atmosphere for 1 h. The medium was removed, and the cell layer was thoroughly washed with PBS (1 mL×3). The cells were trypsinized by trypsin-EDTA (500 μL) and harvested with PBS. The resultant solution (2 mL) was heated with 65% HNO3 (2 mL) at 70° C. for 2 h, cooled to room temperature, and analyzed using an Elan 6100 DCR-ICP-MS (PerkinElmer SCIEX Instruments). For determining the cellular uptake of complexes 1 b 5b, HeLa cells with or without pretreatment of BCN-C10 were incubated in growth medium/DMSO (99:1, v/v) containing the ruthenium(II) complexes (40 μM) in the dark at 37° C. under a 5% CO2 atmosphere. After incubation for 12 h, the medium was removed and the cells were thoroughly washed with PBS (1 mL×3). The cells were typsinized by trypsin-EDTA (500 μL) and harvested with PBS. The resultant solution (1.5 mL) was heated with 65% HNO3 (1 mL) at 60° C. for 2 h, cooled to room temperature, and analyzed using an Elan 6100 DCR-ICP-MS.

Series [4] concerns the target T2, unmodified BSA (Bos taurus, UniProt P02769).
T2 construct: purchased Calbiochem
The experiment in a line: Emission enhancement with unmodified BSA (negative control). The class given is biochemical, Bovine. Particulars: complex 10 μM, protein 3.78 μM, aerated potassium phosphate buffer (50 mM, pH 7.4)/DMSO (99:1, v/v), 298 K.

Series [5] can be described thus: Photophysical data (emission wavelength, lifetime, quantum yield). The class given is physicochemical. On the procedure:
Electronic absorption spectra were recorded on an Agilent 8453 diode array spectrophotometer. Steady-state emission spectra were recorded on a HORIBA JOBIN YVON Fluorolog TCSPC spectrofluorometer. Unless specified otherwise, all solutions for photophysical studies were degassed with no fewer than four successive freeze-pump-thaw cycles and stored in a 10-cm^3 round bottomed flask equipped with a side-arm 1-cm fluorescence cuvette and sealed from the atmosphere by a Rotaflo HP6/6 quick-release Teflon stopper. Luminescence quantum yields were measured by the optically dilute method (Demas, J. N. and Crosby, G. A., J. Phys. Chem. 1971, 75, 991) using an aerated aqueous solution of [Ru(bpy)3]Cl2 (ϕem=0.028, λex=455 nm) as the standard solution (Wallace, L. and Rillema, D. P., Inorg. Chem., 1993, 32, 3836). The concentrations of the standard and sample solutions were adjusted until the absorbance at 455 nm was 0.1. The emission lifetimes were measured on a HORIBA JOBIN YVON Fluorolog TCSPC spectrofluorometer in the Fast MCS lifetime mode with a NanoLED N-375 as the excitation source.
The very low emission quantum yield of complexes 1a-5b compared with other related iridium(III) and ruthenium(II) systems are expected to be due to quenching by the nitrone moiety.
In particular, the emission quantum yields of the iridium(III) complexes 1a, 2a and 3a (ϕem<0.021; Table 1) were much lower than those of common cyclometalated iridium(Ill) polypyridyl complexes (Li, S. P.-Y. et al., Chem. Eur. J. 2010, 16, 8329; Li, S. P.-Y. et al., Biomaterials 2013, 34, 7519; Lo, K. K.-W. et al., Chem. Commun. 2013, 49, 4271) which is expected to be a consequence of efficient quenching associated with isomerization of the C═N group.

Setting [6] is: Potassium phosphate buffer (50 mM, pH 7.4)/DMSO (9:1, v/v), 298 K.
[7] abbreviates: Potassium phosphate buffer (50 mM, pH 7.4)/MeOH (4:1, v/v), 298 K.

T1 sequence (P02769 25-607): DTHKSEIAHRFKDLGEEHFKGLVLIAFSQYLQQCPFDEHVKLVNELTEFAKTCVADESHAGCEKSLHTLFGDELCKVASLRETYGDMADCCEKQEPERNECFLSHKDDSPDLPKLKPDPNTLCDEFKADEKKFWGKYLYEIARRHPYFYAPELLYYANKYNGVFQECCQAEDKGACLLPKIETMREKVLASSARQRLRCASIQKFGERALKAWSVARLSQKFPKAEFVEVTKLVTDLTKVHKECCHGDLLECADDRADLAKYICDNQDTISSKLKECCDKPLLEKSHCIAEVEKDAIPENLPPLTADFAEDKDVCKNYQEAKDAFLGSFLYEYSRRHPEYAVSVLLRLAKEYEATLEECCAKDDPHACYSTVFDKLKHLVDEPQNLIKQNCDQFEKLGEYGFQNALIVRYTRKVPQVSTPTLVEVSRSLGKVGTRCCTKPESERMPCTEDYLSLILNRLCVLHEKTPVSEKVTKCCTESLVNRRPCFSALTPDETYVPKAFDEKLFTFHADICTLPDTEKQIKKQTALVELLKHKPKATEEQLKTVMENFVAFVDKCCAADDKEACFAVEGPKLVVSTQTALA
T2 sequence (P02769 25-607): as above

Take `Cc1ccnc(-c2cc(/C=[N+](/C)[O-])ccn2)c1.F[P-](F)(F)(F)(F)F.F[P-](F)(F)(F)(F)F.[Ru+2].c1ccc(-c2ccccn2)nc1.c1ccc(-c2ccccn2)nc1` [Complex 1b]: the “Emission enhancement factors (I/Io)” value in series [1] is on record as 9.5. The “I/Io BCN-BSA” value in series [2] is recorded as 10.7. Also, the “Amount of ruthenium associated with an average HeLa cell” value (“Amount of ruthenium associated” below) in series [3] is 0.31 ± 0.01 fmol. For the same compound, the “I/Io BSA” value in series [4] came out at 1.1. Further, the Φem in series [5] (CH2Cl2, 298 K) came to 0.006; in series [5] (MeOH, 298 K), 0.006; in series [5] (setting [6]) it was 0.004. The τo worked out at 1.20 μs in series [5] (CH2Cl2, 298 K); 0.94 μs in series [5] (MeOH, 298 K); 0.64 μs in series [5] (setting [6]). In addition, the λem in series [5] (MeOH, 298 K) is 609 nm; in series [5] (setting [6]) it was 611 nm.
On to `CCCCNC(=O)c1ccnc(-c2cc(C(=O)NCCCC)ccn2)c1.CCCCNC(=O)c1ccnc(-c2cc(C(=O)NCCCC)ccn2)c1.Cc1ccnc(-c2cc(/C=[N+](/C)[O-])ccn2)c1.F[P-](F)(F)(F)(F)F.F[P-](F)(F)(F)(F)F.[Ru+2]` [Complex 2b], for which the “Emission enhancement factors (I/Io)” value in series [1] was determined as 7.1. The “I/Io BCN-BSA” value in series [2] was found to be 16.9. Further, in series [3], the “Uptake by BCN-C10-pretreated cells relative to untreated cells” value was determined as 8.89 fold and the “Amount of ruthenium associated” value is listed as 1.32 ± 0.08 fmol. In addition, the “I/Io BSA” value in series [4] amounted to 1.1. In addition, in series [5] (CH2Cl2, 298 K), the Φem was found to be 0.013 and the τo was determined as 1.68 μs. In series [5] (MeOH, 298 K), this compound yielded a Φem of 0.006, a λem of 647 nm and a τo of 0.98 μs. Besides, in series [5] (setting [6]), the Φem was 0.003, the λem came out at 650 nm and the τo was determined as 0.52 μs.
Turning to `Cc1ccnc(-c2cc(/C=[N+](\[O-])c3ccccc3)ccn2)c1.F[P-](F)(F)(F)(F)F.F[P-](F)(F)(F)(F)F.[Ru+2].c1ccc(-c2ccccn2)nc1.c1ccc(-c2ccccn2)nc1` [Complex 5b], in series [1], the “Emission enhancement factors (I/Io)” value was 3.9. Besides, the “I/Io BCN-BSA” value in series [2] was determined as 9.6. Further, in series [3], the “Uptake by BCN-C10-pretreated cells relative to untreated cells” value was determined as 2.48 fold and the “Amount of ruthenium associated” value is 1.09 ± 0.03 fmol. In addition, in series [4], the “I/Io BSA” value was 1.1. In series [5] (MeOH, 298 K), this compound displayed a Φem of 0.015, a λem of 608 nm and a τo of 0.63 μs. In series [5] (setting [7]), the Φem turned out to be 0.006, the λem is 610 nm and the τo worked out at 0.69 μs.
